Assay results: patent US11053244B1, “4-azaindole compounds” (BRISTOL-MYERS SQUIBB COMPANY, priority 2017, dated 2021)

What was measured:
TLR7 = TLR7 (Mus musculus (Mouse), UniProt P58681); test: In vivo mouse TLR7 PD model (gardiquimod-induced plasma IL-6 and IFN-alpha); settings: plasma 90 min after gardiquimod, vs vehicle
Experimental: In Vivo Mouse TLR7 PD Model:
Adult male C5-7BL/6 mice were used for the experiments. Mice (7 to 10 per group) were randomized into different treatment groups based on body weight. Mice from the respective treatment groups were administered orally with vehicle or test compound. Thirty min after the oral administration of vehicle or test compound, mice were challenged with intraperitoneal injection of gardiquimod for TLR7 PD model. Ninety minutes after gardiquimod injection, mice were bled under isoflurane anaesthesia and plasma IL-6 and IFN-alpha levels were estimated by using commercially available ELISA kit (BD Biosciences, PBL Life Sciences). At the end of experiment, mean cytokine data was plotted and one way ANOVA with Dunnett's test was performed to calculate the significance of test compound treated group vs. vehicle control group. Percent inhibition of cytokine induction was calculated for test compound treated group vs vehicle control group.

human TLR7 = human TLR7 (Homo sapiens (Human), UniProt Q9NYK1); test: TLR7 inhibition reporter assay (HEK-Blue cells, SEAP reporter, gardiquimod stimulation); assay type: cell-based
Chain of human TLR7 (Q9NYK1 27-1049): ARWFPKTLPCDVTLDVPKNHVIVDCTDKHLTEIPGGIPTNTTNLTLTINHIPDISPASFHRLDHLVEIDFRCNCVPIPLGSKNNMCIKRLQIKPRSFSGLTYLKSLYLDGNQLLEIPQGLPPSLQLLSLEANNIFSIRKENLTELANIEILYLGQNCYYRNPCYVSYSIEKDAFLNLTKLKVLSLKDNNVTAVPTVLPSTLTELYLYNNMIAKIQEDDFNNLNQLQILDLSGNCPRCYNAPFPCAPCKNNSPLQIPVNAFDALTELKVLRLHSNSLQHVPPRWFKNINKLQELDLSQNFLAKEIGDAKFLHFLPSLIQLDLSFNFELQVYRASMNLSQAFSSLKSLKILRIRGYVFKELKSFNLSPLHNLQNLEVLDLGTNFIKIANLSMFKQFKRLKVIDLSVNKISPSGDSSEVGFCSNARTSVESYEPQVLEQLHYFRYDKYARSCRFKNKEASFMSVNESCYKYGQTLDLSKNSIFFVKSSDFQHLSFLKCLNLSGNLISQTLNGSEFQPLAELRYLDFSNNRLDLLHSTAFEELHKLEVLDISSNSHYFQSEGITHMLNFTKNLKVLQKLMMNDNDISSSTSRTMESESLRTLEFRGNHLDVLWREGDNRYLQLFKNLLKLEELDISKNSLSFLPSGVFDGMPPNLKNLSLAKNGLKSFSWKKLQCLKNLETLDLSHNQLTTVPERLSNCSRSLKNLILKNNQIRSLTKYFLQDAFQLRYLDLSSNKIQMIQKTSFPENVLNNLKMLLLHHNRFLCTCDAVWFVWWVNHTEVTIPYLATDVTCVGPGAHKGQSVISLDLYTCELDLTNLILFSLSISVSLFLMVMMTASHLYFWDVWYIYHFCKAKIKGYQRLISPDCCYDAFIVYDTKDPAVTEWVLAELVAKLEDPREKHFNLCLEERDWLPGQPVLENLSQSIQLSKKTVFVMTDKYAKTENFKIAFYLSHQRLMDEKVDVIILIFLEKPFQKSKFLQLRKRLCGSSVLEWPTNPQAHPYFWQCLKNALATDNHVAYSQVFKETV
Experimental: (§1) HEK-Blue™-cells (Invivogen) overexpressing human TLR7, TLR8 or TLR9 receptors were used for screening inhibitors of these receptors using an inducible SEAP (secreted embryonic alkaline phosphatase) reporter gene under the control of the IFN-β minimal promoter fused to five NF-κB and AP-1-binding sites. Briefly, cells are seeded into Greiner 384 well plates (15000 cells per well for TLR7, 20,000 for TLR8 and 25,000 for TLR9) and then treated with test compounds in DMSO to yield a final dose response concentration range of 0.05 nM-50 μM. After a 30 minute compound pre-treatment at room temperature, the cells are then stimulated with a TLR7 ligand (gardiquimod at a final concentration of 7.5 μM), TLR8 ligand (R848 at a final concentration of 15.9 μM) or TLR9 ligand (ODN2006 at a final concentration of 5 nM) to activate NF-κB and AP-1 which induce the production of SEAP. After a 22 hour incubation at 37° C., 5% CO2, SEAP levels are determined with the addition of HEK-Blue™ Detection reagent (Invivogen), a cell culture medium that allows for detection of SEAP, according to manufacturer's specifications.

human TLR9 = human TLR9 (Homo sapiens (Human), UniProt Q9NR96); test: TLR9 inhibition reporter assay (HEK-Blue cells, SEAP reporter, ODN2006 stimulation); settings: read-out: TLR9 IC50
Chain of human TLR9 (Q9NR96 26-1032): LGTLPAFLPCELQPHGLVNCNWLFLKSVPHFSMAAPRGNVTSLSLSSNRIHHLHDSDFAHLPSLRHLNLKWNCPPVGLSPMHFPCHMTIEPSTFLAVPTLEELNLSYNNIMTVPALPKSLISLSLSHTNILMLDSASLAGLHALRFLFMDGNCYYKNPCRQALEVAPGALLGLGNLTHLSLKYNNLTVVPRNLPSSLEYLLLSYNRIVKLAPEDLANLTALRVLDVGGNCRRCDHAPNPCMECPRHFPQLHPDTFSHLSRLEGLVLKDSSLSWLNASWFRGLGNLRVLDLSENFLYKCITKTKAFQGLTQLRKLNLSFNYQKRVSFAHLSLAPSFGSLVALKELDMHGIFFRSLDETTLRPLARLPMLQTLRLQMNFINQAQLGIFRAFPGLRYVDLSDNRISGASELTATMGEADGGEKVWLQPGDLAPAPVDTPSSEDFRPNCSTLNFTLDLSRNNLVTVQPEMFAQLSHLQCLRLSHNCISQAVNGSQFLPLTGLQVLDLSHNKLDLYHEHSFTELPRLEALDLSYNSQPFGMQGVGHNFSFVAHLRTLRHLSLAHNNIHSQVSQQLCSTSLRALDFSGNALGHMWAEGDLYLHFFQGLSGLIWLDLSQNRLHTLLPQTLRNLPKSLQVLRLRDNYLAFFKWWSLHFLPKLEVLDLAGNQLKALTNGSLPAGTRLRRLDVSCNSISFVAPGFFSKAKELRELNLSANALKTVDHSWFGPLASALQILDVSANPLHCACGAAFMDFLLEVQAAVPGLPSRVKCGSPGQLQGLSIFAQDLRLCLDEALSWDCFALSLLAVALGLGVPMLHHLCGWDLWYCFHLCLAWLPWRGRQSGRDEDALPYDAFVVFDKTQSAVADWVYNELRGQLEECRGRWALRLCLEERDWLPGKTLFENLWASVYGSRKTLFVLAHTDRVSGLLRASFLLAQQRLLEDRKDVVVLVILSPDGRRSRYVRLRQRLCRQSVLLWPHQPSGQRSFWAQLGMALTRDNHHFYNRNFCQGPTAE
Experimental: TLR7/8/9 Inhibition Reporter Assays
as §1

human TLR8 = human TLR8 (Homo sapiens (Human), UniProt Q9NR97); test: TLR8 inhibition reporter assay (HEK-Blue cells, SEAP reporter, R848 stimulation); settings: read-out: TLR8 IC50
Chain of human TLR8 (Q9NR97 27-1041): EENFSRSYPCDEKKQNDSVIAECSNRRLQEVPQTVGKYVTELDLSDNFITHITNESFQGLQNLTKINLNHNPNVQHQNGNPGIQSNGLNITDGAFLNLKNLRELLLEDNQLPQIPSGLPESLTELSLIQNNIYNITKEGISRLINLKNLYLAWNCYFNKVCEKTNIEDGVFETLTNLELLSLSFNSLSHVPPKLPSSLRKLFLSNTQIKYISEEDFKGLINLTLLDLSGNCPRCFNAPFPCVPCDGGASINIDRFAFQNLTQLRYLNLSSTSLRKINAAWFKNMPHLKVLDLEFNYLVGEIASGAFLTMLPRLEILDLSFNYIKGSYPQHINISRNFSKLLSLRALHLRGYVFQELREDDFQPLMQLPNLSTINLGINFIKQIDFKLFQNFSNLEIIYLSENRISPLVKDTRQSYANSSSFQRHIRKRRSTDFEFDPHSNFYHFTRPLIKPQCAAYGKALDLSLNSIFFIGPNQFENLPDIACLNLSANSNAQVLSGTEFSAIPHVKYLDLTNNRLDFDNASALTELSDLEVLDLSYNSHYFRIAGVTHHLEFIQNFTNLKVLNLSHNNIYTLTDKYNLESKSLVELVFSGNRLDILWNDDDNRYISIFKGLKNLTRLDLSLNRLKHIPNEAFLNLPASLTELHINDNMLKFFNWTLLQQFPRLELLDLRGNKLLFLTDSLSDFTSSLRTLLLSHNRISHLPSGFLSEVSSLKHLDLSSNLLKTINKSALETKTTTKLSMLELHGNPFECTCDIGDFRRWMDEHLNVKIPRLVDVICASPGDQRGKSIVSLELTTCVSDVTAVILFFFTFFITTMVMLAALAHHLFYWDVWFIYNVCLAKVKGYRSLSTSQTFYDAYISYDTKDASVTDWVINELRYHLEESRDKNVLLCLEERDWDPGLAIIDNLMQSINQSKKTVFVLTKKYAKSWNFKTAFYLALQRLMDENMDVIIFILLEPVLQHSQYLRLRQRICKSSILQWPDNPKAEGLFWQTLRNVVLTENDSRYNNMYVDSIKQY
Experimental: TLR7/8/9 Inhibition Reporter Assays
as §1

[1] = oral dose 0.005 mg/kg 30 min before i.p. gardiquimod
[2] = oral dose 0.01 mg/kg 30 min before i.p. gardiquimod
[3] = oral dose 0.05 mg/kg 30 min before i.p. gardiquimod
[4] = oral dose 0.25 mg/kg 30 min before i.p. gardiquimod
[5] = oral dose 0.5 mg/kg 30 min before i.p. gardiquimod
[6] = oral dose 0.0015 mg/kg 30 min before i.p. gardiquimod
[7] = oral dose 0.003 mg/kg 30 min before i.p. gardiquimod
[8] = oral dose 0.015 mg/kg 30 min before i.p. gardiquimod
[9] = oral dose 0.075 mg/kg 30 min before i.p. gardiquimod
[10] = oral dose 0.15 mg/kg 30 min before i.p. gardiquimod
[11] = oral dose 0.006 mg/kg 30 min before i.p. gardiquimod
[12] = oral dose 0.03 mg/kg 30 min before i.p. gardiquimod
[13] = oral dose 0.3 mg/kg 30 min before i.p. gardiquimod

Chain of TLR7 (P58681 27-1050): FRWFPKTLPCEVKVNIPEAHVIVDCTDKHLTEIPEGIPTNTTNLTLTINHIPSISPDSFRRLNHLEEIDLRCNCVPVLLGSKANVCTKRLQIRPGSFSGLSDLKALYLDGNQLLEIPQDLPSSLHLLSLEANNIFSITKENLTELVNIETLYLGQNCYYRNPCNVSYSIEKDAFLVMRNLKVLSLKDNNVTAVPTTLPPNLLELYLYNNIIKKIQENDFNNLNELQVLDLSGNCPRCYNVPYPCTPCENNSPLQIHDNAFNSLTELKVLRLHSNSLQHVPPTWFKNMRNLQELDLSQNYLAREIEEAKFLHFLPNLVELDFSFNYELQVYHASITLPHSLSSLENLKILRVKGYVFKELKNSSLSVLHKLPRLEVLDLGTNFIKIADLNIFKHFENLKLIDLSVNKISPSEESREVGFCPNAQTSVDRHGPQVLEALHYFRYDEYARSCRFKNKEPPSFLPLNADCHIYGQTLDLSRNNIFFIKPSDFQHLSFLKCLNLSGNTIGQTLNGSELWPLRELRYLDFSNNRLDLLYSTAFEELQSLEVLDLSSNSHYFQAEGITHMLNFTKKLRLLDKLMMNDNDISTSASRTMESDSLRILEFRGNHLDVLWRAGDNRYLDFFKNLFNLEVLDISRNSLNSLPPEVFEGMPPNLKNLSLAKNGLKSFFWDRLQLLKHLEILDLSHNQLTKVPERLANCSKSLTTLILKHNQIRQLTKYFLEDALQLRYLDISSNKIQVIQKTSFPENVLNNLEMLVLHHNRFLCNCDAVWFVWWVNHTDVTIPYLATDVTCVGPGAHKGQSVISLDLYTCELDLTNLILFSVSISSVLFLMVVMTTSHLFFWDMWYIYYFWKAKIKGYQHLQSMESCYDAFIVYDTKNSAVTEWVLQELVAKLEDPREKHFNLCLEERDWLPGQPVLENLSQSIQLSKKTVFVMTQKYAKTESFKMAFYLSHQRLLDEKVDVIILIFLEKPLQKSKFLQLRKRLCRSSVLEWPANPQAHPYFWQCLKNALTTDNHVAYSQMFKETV

Cc1c(-c2[nH]c3ccc(N4CCN(C(=O)CN(C)C)CC4)nc3c2C(C)C)cn2ncnc2c1C [Example 3, 1-(4-(2-(7,8-dimethyl-[1,2,4]triazolo[1,5-a]pyridin-6-yl)-3-isopropyl-1H-pyrrolo[3,2-b]pyridin-5-yl)piperazin-1-yl)-2-(dimethylamino)ethan-1-one]
% inhibition of IFN-alpha (TLR7; [1]): 29%
% inhibition of IL6 (TLR7; [1]): 0%
% inhibition of IFN-alpha (TLR7; [2]): 37%
% inhibition of IL6 (TLR7; [2]): 24%
% inhibition of IFN-alpha (TLR7; [3]): 94%
% inhibition of IL6 (TLR7; [3]): 75%
% inhibition of IFN-alpha (TLR7; [4]): 99%
% inhibition of IL6 (TLR7; [4]): 90%
% inhibition of IFN-alpha (TLR7; [5]): 100%
% inhibition of IL6 (TLR7; [5]): 91%

Cc1c(-c2[nH]c3ccc(C4CCC(NCC5(S(C)(=O)=O)CC5)CC4)nc3c2C(C)C)cn2ncnc2c1C (stereo not drawn) [Example 4, 4-(2-(7,8-dimethyl-[1,2,4]triazolo[1,5-a]pyridin-6-yl)-3-isopropyl-1H-pyrrolo[3,2-b]pyridin-5-yl)-N-((1-(methylsulfonyl)cyclopropyl)methyl)cyclohexan-1-amine]
% inhibition of IFN-alpha (TLR7; [6]): 0%
% inhibition of IL6 (TLR7; [6]): 0%
% inhibition of IFN-alpha (TLR7; [7]): 33%
% inhibition of IL6 (TLR7; [7]): 23%
% inhibition of IFN-alpha (TLR7; [8]): 74%
% inhibition of IL6 (TLR7; [8]): 75%
% inhibition of IFN-alpha (TLR7; [9]): 93%
% inhibition of IL6 (TLR7; [9]): 76%
% inhibition of IFN-alpha (TLR7; [10]): 99%
% inhibition of IL6 (TLR7; [10]): 95%

Cc1c(-c2[nH]c3ccc(C4CCC(N5CC6(C5)CS(=O)(=O)C6)CC4)nc3c2C(C)C)cn2ncnc2c1C (stereo not drawn) [Example 438, 6-((1r,4r)-(4-(2-(7,8-dimethyl-[1,2,4]triazolo[1,5-a]pyridin-6-yl)-3-isopropyl-1H-pyrrolo[3,2-b]pyridin-5-yl)cyclohexyl)-2-thia-6-azaspiro[3.3]heptane 2,2-dioxide]
% inhibition of IFN-alpha (TLR7; [7]): 36%
% inhibition of IL6 (TLR7; [7]): 25%
% inhibition of IFN-alpha (TLR7; [11]): 57%
% inhibition of IL6 (TLR7; [11]): 41%
% inhibition of IFN-alpha (TLR7; [12]): 67%
% inhibition of IL6 (TLR7; [12]): 56%
% inhibition of IFN-alpha (TLR7; [10]): 96%
% inhibition of IL6 (TLR7; [10]): 78%
% inhibition of IFN-alpha (TLR7; [13]): 98%
% inhibition of IL6 (TLR7; [13]): 82%

Cc1c(-c2[nH]c3ccc(N4C[C@H]5C[C@@H]4CN5C4CCOC4)nc3c2C(C)C)cn2ncnc2c1C (stereo partly drawn) [Example 771]
IC50 (human TLR7): 4.3 nM
IC50 (human TLR9): 9840 nM
IC50 (human TLR8): 9.2 nM
